Measured values from patent publication US20250085273A1, “NOVEL RAPID DRUG DISCOVERY FOR SEPSIS AND AGENTS FOR USE AS SEPSIS THERAPY” (priority 2023, published 2025).
Structures can show the parent of a compound that is named as a salt.

What was measured:
Type in all cases: in vivo, Danio rerio
[1] = tested on: zebrafish (4 dpf pre-treated, LPS exposure at 5-dpf) challenged with P. aeruginosa LPS 60 μg/mL; conditions: number of n = 16 fish; for 24 hour Tail Edema, No-Drug Pretreatment: 10 μM drug with LPS 60 μg/mL; for 24 hour Tail Edema, No-Drug Pretreatment / 24 Hour Mortality and Tail Edema, No-Drug Pretreatment / 24 Hour Mortality, No Drug Pretreatment: no 24-hour pre-treatment; for 24 Hour Mortality and Tail Edema, Drug Pretreatment / 24 Hour Mortality, Drug Pretreatment: 24-hour 10 μM drug pre-treatment; for 24 hour Tail Edema, Drug Pretreatment: 24-hour 10 μM drug pre-treatment before LPS 60 μg/mL
Experimental: Drugs identified with >80% rescue were subjected to additional testing. Drug pretreatment for 24 hours prior to LPS challenge was evaluated to determine if any prophylactic benefit could be realized with any of the top rescue drugs. The intent was to determine if drug pre-treatment might be used at the point of injury as a preventative therapeutic before the onset of infection and development of sepsis. Parallel groups of fish received a 24-hour drug pre-treatment or no drug pre-treatment prior to LPS challenge. For this test, 4 dpf PTU-treated zebrafish embryos were placed into 96 well plates containing 100 μL of EM. […] All plates were covered with parafilm and placed into an incubator at 28.5° C. for 24 hours. […] Once the plates were dosed, they were covered with parafilm and placed into an incubator at 28.5° C. The plates were removed at 6- and 24-hours post exposure and scored for tail edema and mortality. Once the 24-hour tail edema and mortality endpoints were collected, a neurobehavioral test was conducted as described in section 2.8.

[2] = tested on: 5-dpf zebrafish larvae challenged with P. aeruginosa LPS 60 μg/mL; conditions: compound 10 μM; for 5 dpf Embryos Percent Rescue (Mort + Tail Edema): 5-dpf larvae
Text: Confirmatory testing followed the same methods as the initial testing but used 5-dpf larvae instead of the 3-dpf larvae that were used for the initial screening because they were easier to handle and replicated the methods of Philip et al. (2017).
Next, follow-on 5-dpf screening was implemented to confirm initial screening with more larvae. Zebrafish swim faster at 5-dpf (requiring more time to load 96 plates), and all major organ systems are functioning at 5-dpf and thus determined as advantageous for follow-on confirmation.

[3] = tested on: 3-dpf Zebrafish Embryos Challenged with LPS (P. aeruginosa 60 μg/mL); conditions: for Percent Rescue (Mort + Tail Edema): 3-dpf embryos, n=16; for Percent Rescue (Mort + Tail Edema) / rescue of tail edema and mortality (sepsis rescue rate) at 3-dpf / 3 dpf Embryos Percent Rescue (Mort + Tail Edema): compound 10 μM; for 3 dpf Embryos Percent Rescue (Mort + Tail Edema): initial 3-dpf screen shown for reference
Experimental: Healthy, normally developing embryos collected from the adult AB zebrafish spawning events were treated with 75 μM of 1-phenyl 2-thiourea (PTU) in EM prior to 24 hours post fertilization (hpf) to block pigmentation formation (Karlsson et al, 2001). These embryos were then placed into an incubator at 28.5° C. until they reached 3-dpf. Embryos were then removed from the incubator and plated individually into the wells of 96 well plates containing 50 μL of EM.
A super stock of 120 μg/mL of P. aeruginosa LPS was made up in EM in a glass container. This stock was then used to make sub stocks of 120 μg/mL P. aeruginosa LPS (positive control) and 120 μg/mL P. aeruginosa LPS containing 20 μM of test drug in glass scintillation vials. Immediately after the sub stocks were made, the wells were dosed with either 50 μL of 120 μg/mL of P. aeruginosa, 120 μg/mL of P. aeruginosa with 20 μM of test drug, or EM (1:1 Dilution). Each 96 well plate had one LPS positive control (n=16), 4 different test drugs with P. aeruginosa LPS (n=16 per drug), and one negative control (n=16). Once the plates were dosed, they were covered with parafilm and placed into an incubator at 28.5° C. The plates were removed at 6- and 24-hours post exposure to be scored for tail edema and mortality. All 644 drugs evaluated for rescue from mortality and tail edema induced by P. aeruginosa LPS exposure as compared to LPS-treated controls after 24 hours of exposure.
3-dpf embryos were challenged with 60 μg/mL P. aeruginosa LPS in combination with single 10 μM concentration of each compound for 24 hours (n=16 fish per compound). […] Other 29 compounds exceeded 60% rescue of tail edema and mortality at 24 hours post exposure.

[4] = P. aeruginosa LPS 60 μg/mL, 24 hours
[5] = 3-dpf, P. aeruginosa LPS 60 μg/mL, 24 hours

O=C(NCCN1CCOCC1)c1ccc(Cl)cc1 [Compound 5, Moclobemide]
24 hour Tail Edema, No-Drug Pretreatment [1]: 0 fish | 24 Hour Mortality and Tail Edema, Drug Pretreatment [1]: 16 fish | 24 Hour Mortality, Drug Pretreatment [1]: 16 fish | 24 hour Tail Edema, Drug Pretreatment [1]: 0 fish | 24 Hour Mortality and Tail Edema, No-Drug Pretreatment [1]: 16 fish | 24 Hour Mortality, No Drug Pretreatment [1]: 16 fish | 5 dpf Embryos Percent Rescue (Mort + Tail Edema) [2]: 81% | rescue of tail edema and mortality (sepsis rescue rate) at 5-dpf [2]: 81% | Percent Rescue (Mort + Tail Edema) [3, 4]: 75% | rescue of tail edema and mortality (sepsis rescue rate) at 3-dpf [3, 5]: 75% | 3 dpf Embryos Percent Rescue (Mort + Tail Edema) ([3]; P. aeruginosa LPS 60 μg/mL): 75%

N[C@@H]1C[C@H]1c1ccccc1.N[C@@H]1C[C@H]1c1ccccc1.O=S(=O)(O)O [Compound 7, Tranylcypromine (hemisulfate)]
5 dpf Embryos Percent Rescue (Mort + Tail Edema) [2]: 56% | Percent Rescue (Mort + Tail Edema) [3, 4]: 88% | 3 dpf Embryos Percent Rescue (Mort + Tail Edema) ([3]; P. aeruginosa LPS 60 μg/mL): 88%

C[C@H](N)[C@H](O)c1ccc(O)c(O)c1 [Compound 10, Levonordefrin]
5 dpf Embryos Percent Rescue (Mort + Tail Edema) [2]: 75% | Percent Rescue (Mort + Tail Edema) [3, 4]: 63% | 3 dpf Embryos Percent Rescue (Mort + Tail Edema) ([3]; P. aeruginosa LPS 60 μg/mL): 63%

OCCOCCN1CCN(C2=Nc3ccccc3Sc3ccccc32)CC1 [Compound 11, Quetiapine (hemifumarate)]
24 hour Tail Edema, No-Drug Pretreatment [1]: 1 fish | 24 Hour Mortality and Tail Edema, Drug Pretreatment [1]: 16 fish | 24 Hour Mortality, Drug Pretreatment [1]: 15 fish | 24 hour Tail Edema, Drug Pretreatment [1]: 1 fish | 24 Hour Mortality and Tail Edema, No-Drug Pretreatment [1]: 16 fish | 24 Hour Mortality, No Drug Pretreatment [1]: 15 fish | 5 dpf Embryos Percent Rescue (Mort + Tail Edema) [2]: 81% | rescue of tail edema and mortality (sepsis rescue rate) at 5-dpf [2]: 81% | Percent Rescue (Mort + Tail Edema) [3, 4]: 94% | rescue of tail edema and mortality (sepsis rescue rate) at 3-dpf [3, 5]: 94% | 3 dpf Embryos Percent Rescue (Mort + Tail Edema) ([3]; P. aeruginosa LPS 60 μg/mL): 94%

O=C1NCC2(CCN(CCc3ccccc3)CC2)O1 [Compound 17, Fenspiride hydrochloride]
24 hour Tail Edema, No-Drug Pretreatment [1]: 0 fish | 24 Hour Mortality and Tail Edema, Drug Pretreatment [1]: 16 fish | 24 Hour Mortality, Drug Pretreatment [1]: 16 fish | 24 hour Tail Edema, Drug Pretreatment [1]: 0 fish | 24 Hour Mortality and Tail Edema, No-Drug Pretreatment [1]: 16 fish | 24 Hour Mortality, No Drug Pretreatment [1]: 16 fish | 5 dpf Embryos Percent Rescue (Mort + Tail Edema) [2]: 88% | rescue of tail edema and mortality (sepsis rescue rate) at 5-dpf [2]: 88% | Percent Rescue (Mort + Tail Edema) [3, 4]: 63% | rescue of tail edema and mortality (sepsis rescue rate) at 3-dpf [3, 5]: 63% | 3 dpf Embryos Percent Rescue (Mort + Tail Edema) ([3]; P. aeruginosa LPS 60 μg/mL): 63%

O=C(Nc1nc(-c2cc(Cl)cs2)c(N2CCN(C3CCCCC3)CC2)s1)c1cnc(N2CCC(C(=O)O)CC2)c(Cl)c1 [Compound 31, Avatrombopag]
5 dpf Embryos Percent Rescue (Mort + Tail Edema) [2]: 31% | Percent Rescue (Mort + Tail Edema) [3, 4]: 75% | 3 dpf Embryos Percent Rescue (Mort + Tail Edema) ([3]; P. aeruginosa LPS 60 μg/mL): 75%

CN[C@H]1CC[C@@H](c2ccc(Cl)c(Cl)c2)c2ccccc21 [Compound 37, Sertraline (hydrochloride)]
5 dpf Embryos Percent Rescue (Mort + Tail Edema) [2]: 31% | Percent Rescue (Mort + Tail Edema) [3, 4]: 88% | 3 dpf Embryos Percent Rescue (Mort + Tail Edema) ([3]; P. aeruginosa LPS 60 μg/mL): 88%

CC(C)(C)c1ccc(C(O)CCCN2CCC(C(O)(c3ccccc3)c3ccccc3)CC2)cc1 (centres unmarked) [Compound 44, Terfenadine]
5 dpf Embryos Percent Rescue (Mort + Tail Edema) [2]: 0% | Percent Rescue (Mort + Tail Edema) [3, 4]: 75% | pericardial edema observation ([3]; 3-dpf, 24 hours): had pericardial edemas | mortality (survival) in 3-dpf initial screen [3, 5]: alive at 24 hours | 3 dpf Embryos Percent Rescue (Mort + Tail Edema) ([3]; P. aeruginosa LPS 60 μg/mL): 75%

Nc1ccc(S(=O)(=O)c2ccc(N)cc2)cc1 [Compound 155, Dapsone]
5 dpf Embryos Percent Rescue (Mort + Tail Edema) [2]: 25% | Percent Rescue (Mort + Tail Edema) [3, 4]: 69% | 3 dpf Embryos Percent Rescue (Mort + Tail Edema) ([3]; P. aeruginosa LPS 60 μg/mL): 69%

CN(C)[C@@H](CCOc1cccc2ccccc12)c1ccccc1 [Compound 156, Dapoxetine (hydrochloride)]
5 dpf Embryos Percent Rescue (Mort + Tail Edema) [2]: 38% | rescue of tail edema and mortality (sepsis rescue rate) at 5-dpf [2]: 38% | Percent Rescue (Mort + Tail Edema) [3, 4]: 100% | rescue of tail edema and mortality (sepsis rescue rate) at 3-dpf [3, 5]: 100% | 3 dpf Embryos Percent Rescue (Mort + Tail Edema) ([3]; P. aeruginosa LPS 60 μg/mL): 100%

CCN(CC)CCNC(=O)c1c(C)[nH]c(/C=C2\C(=O)Nc3ccc(F)cc32)c1C [Compound 354, Sunitinib (Malate)]
5 dpf Embryos Percent Rescue (Mort + Tail Edema) [2]: 100% | rescue of tail edema and mortality (sepsis rescue rate) at 5-dpf [2]: 100% | Percent Rescue (Mort + Tail Edema) [3, 4]: 88% | rescue of tail edema and mortality (sepsis rescue rate) at 3-dpf [3, 5]: 88% | 3 dpf Embryos Percent Rescue (Mort + Tail Edema) ([3]; P. aeruginosa LPS 60 μg/mL): 88%

Cc1cc(Nc2ncc(Cl)c(Nc3ccccc3S(=O)(=O)C(C)C)n2)c(OC(C)C)cc1C1CCNCC1 [Compound 378, Ceritinib dihydrochloride]
5 dpf Embryos Percent Rescue (Mort + Tail Edema) [2]: 38% | Percent Rescue (Mort + Tail Edema) [3, 4]: 75% | 3 dpf Embryos Percent Rescue (Mort + Tail Edema) ([3]; P. aeruginosa LPS 60 μg/mL): 75%

CCN(CC)CCNC(=O)c1c(C)[nH]c(/C=C2\C(=O)Nc3ccc(F)cc32)c1C [Compound 621, Sunitinib Malate]
5 dpf Embryos Percent Rescue (Mort + Tail Edema) [2]: 100% | rescue of tail edema and mortality (sepsis rescue rate) at 5-dpf [2]: 100% | Percent Rescue (Mort + Tail Edema) [3, 4]: 94% | rescue of tail edema and mortality (sepsis rescue rate) at 3-dpf [3, 5]: 88% | 3 dpf Embryos Percent Rescue (Mort + Tail Edema) ([3]; P. aeruginosa LPS 60 μg/mL): 94%

Almotriptan (malate) [Compound 6]
5 dpf Embryos Percent Rescue (Mort + Tail Edema) [2]: 63% | Percent Rescue (Mort + Tail Edema) [3, 4]: 63% | 3 dpf Embryos Percent Rescue (Mort + Tail Edema) ([3]; P. aeruginosa LPS 60 μg/mL): 63%

Alverine (citrate) [Compound 138]
5 dpf Embryos Percent Rescue (Mort + Tail Edema) [2]: 38% | Percent Rescue (Mort + Tail Edema) [3, 4]: 69% | 3 dpf Embryos Percent Rescue (Mort + Tail Edema) ([3]; P. aeruginosa LPS 60 μg/mL): 69%

Bedaquiline fumarate [Compound 474]
5 dpf Embryos Percent Rescue (Mort + Tail Edema) [2]: 0% | Percent Rescue (Mort + Tail Edema) [3, 4]: 94% | 3 dpf Embryos Percent Rescue (Mort + Tail Edema) ([3]; P. aeruginosa LPS 60 μg/mL): 94%

Gabexate (mesylate) [Compound 8]
5 dpf Embryos Percent Rescue (Mort + Tail Edema) [2]: 31% | Percent Rescue (Mort + Tail Edema) [3, 4]: 88% | 3 dpf Embryos Percent Rescue (Mort + Tail Edema) ([3]; P. aeruginosa LPS 60 μg/mL): 88%

Lumateperone (tosylate) [Compound 30]
5 dpf Embryos Percent Rescue (Mort + Tail Edema) [2]: 19% | Percent Rescue (Mort + Tail Edema) [3, 4]: 75% | 3 dpf Embryos Percent Rescue (Mort + Tail Edema) ([3]; P. aeruginosa LPS 60 μg/mL): 75%
